Reference: paper PMC9817970 (Cancers, 2022)

Tests used:
GIST-T1 cells = test: Cell viability assay (CellTiter-Glo); format: cell-based; conditions: Homo sapiens, GISTT1; 72 h; concentration causing half-maximal growth inhibition
Protocol: (§1) GIST-T1 (Cosmobio, Tokyo, Japan, # PMC-GIST01C-COS) cells were cultured in DMEM (Welgene, # LM001-05) and HMC1.2 (Merck, Darmstadt, Germany, # SCC062) cells were cultured in IMDM (Welgene, # LM004-01). Parental Ba/F3 (DSMZ, Braunschweig, Germany, # ACC300) cells were cultured in RPMI (Welgene, # LM011-51) with 10 ng IL-3/mL (Enzo, # ALX-201-821). The culture media was supplemented with 10% fetal bovine serum and 1% penicillin/streptomycin solution. The cells were maintained in a humidified atmosphere containing 5% CO2 at 37 °C.
(§2) Cells (GIST-T1: 5.0 × 10^3; HMC1.2: 1 × 10^4) were seeded in 96-well plates. Each compound was treated in each well at 10 dose points of 3-fold serial dilution. After treatment with each compound for 72 h, CellTiter-Glo solution (Promega, # G7572) was added to each well. Anti-proliferation activity was measured the luminescence using a 96-well plate reader (EnVision 2013).

HMC1.2 cells = test: Cell viability assay (CellTiter-Glo); format: cell-based, human; conditions: 72 h; for GI50 HMC1.2: inactive = less than 50% inhibition at a concentration of 50 μM; for GI50: Homo sapiens
Protocol: as §1, §2

c-KIT = c-KIT (Homo sapiens, UniProt P10721); test: Radiometric biochemical kinase assay on c-KIT; parameters: purchased Reaction Biology Corp. (contract assay service); conditions: for IC50 against c-KIT: radiometric biochemical kinase assay, 10 μM ATP, inactive = less than 50% inhibition at a concentration of 10 μM; for IC50: read-out: IC50 against c-KIT; for fold enhanced c-KIT inhibitory activity compared with 6h: versus 6h
Protocol: Biochemical kinase assays on c-KIT protein kinase were performed at Reaction Biology Corp. (San Diego, CA, USA). […] The kinase assay followed the manufacturer’s instruction. IC50 values were calculated by GraphPad prism 8.0 software (GraphPad Software, San Diego, CA, USA).
Enzymatic inhibitory activities of all synthesized thiazolo[5,4-b]pyridine derivatives against c-KIT were measured using radiometric biochemical kinase assays (Table 1). We first explored the R1 group of the thiazolo[5,4-b]pyridine scaffold.

Sequence of c-KIT (P10721 26-976): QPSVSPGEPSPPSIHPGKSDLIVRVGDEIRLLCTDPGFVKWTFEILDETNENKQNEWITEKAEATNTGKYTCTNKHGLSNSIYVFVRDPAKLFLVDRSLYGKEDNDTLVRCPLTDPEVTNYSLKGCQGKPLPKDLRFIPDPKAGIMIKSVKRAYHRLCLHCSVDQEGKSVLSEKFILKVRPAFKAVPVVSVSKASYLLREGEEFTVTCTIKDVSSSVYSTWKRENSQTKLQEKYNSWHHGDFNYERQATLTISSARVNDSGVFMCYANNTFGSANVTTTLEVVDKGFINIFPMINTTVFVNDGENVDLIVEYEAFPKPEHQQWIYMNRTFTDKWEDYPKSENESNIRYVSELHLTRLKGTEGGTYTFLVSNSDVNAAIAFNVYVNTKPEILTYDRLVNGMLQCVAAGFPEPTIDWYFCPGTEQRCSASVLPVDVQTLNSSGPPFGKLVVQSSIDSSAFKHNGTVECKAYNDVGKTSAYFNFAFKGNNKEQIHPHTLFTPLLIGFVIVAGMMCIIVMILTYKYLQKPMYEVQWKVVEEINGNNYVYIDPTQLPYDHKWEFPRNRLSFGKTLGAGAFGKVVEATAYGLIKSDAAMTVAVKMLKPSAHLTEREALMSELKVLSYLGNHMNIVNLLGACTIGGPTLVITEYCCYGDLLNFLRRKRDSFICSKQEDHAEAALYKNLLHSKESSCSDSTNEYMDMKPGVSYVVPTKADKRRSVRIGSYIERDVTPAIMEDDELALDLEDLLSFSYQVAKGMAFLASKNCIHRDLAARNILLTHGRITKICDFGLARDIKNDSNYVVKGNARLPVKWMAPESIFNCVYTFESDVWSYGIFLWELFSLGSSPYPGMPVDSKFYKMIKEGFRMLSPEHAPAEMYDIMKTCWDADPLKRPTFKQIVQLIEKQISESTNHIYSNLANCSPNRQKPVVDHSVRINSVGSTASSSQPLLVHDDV

SMILES | IC50 against c-KIT (c-KIT) | IC50 (c-KIT) | fold enhanced c-KIT inhibitory activity compared with 6h (c-KIT) | GI50 (GIST-T1 cells) | GI50 HMC1.2 (HMC1.2 cells) | GI50 (HMC1.2 cells)
Cc1ccc(NC(=O)c2cscn2)cc1-c1cnc2sc(N)nc2c1 [6a] | inactive^b | – | – | > 50 µM | Inactive ^b | –
Cc1cc(C(=O)Nc2ccc(C)c(-c3cnc4sc(N)nc4c3)c2)no1 [6b] | inactive^b | – | – | 33 ± 7.09 µM | Inactive ^b | –
Cc1ccc(NC(=O)c2csc(-c3ccncc3)n2)cc1-c1cnc2sc(N)nc2c1 [6c] | inactive^b | – | – | 33.7 ± 3.45 µM | Inactive ^b | –
Cc1ccc(NC(=O)c2ccccc2)cc1-c1cnc2sc(N)nc2c1 [6d] | inactive^b | – | – | 16.4 ± 2.73 µM | – | 25.2 ± 2.21 µM
Cc1cccc(C(=O)Nc2ccc(C)c(-c3cnc4sc(N)nc4c3)c2)c1 [6e] | inactive^b | – | – | 3.45 ± 0.41 µM | – | 11.5 ± 0.62 µM
Cc1cncc(C(=O)Nc2ccc(C)c(-c3cnc4sc(N)nc4c3)c2)c1 [6f] | inactive^b | – | – | 20.9 ± 2 µM | inactive ^b | –
Cc1ccc(NC(=O)c2cccc(S(C)(=O)=O)c2)cc1-c1cnc2sc(N)nc2c1 [6g] | inactive^b | – | – | 10.8 ± 1.06 µM | – | 36.8 ± 10.9 µM
Cc1ccc(NC(=O)c2cccc(C(F)(F)F)c2)cc1-c1cnc2sc(N)nc2c1 [6h] | – | 9.87 µM | – | 0.96 ± 0.1 µM | – | 7.26 ± 4.13 µM
Cc1ccc(NC(=O)Cc2cccc(C(F)(F)F)c2)cc1-c1cnc2sc(N)nc2c1 [6i] | inactive^b | – | – | 7.16 ± 0.87 µM | – | 9.65 ± 1.06 µM
Cc1ccc(NC(=O)Nc2cccc(C(F)(F)F)c2)cc1-c1cnc2sc(N)nc2c1 [6j] | inactive^b | – | – | 3.31 ± 0.73 µM | – | 6.35 ± 0.32 µM
Cc1ccc(NC(=O)c2ccc(N(C)C)c(C(F)(F)F)c2)cc1-c1cnc2sc(N)nc2c1 [6k] | – | 4.31 µM | 2.3- to 5.6 fold | 0.18 ± 0.03 µM | – | 2.27 ± 0.84 µM

Further lines, with some results ahead:

IC50 against c-KIT (c-KIT) | IC50 (c-KIT) | fold enhanced c-KIT inhibitory activity compared with 6h (c-KIT) | SMILES | GI50 (GIST-T1 cells) | GI50 HMC1.2 (HMC1.2 cells) | GI50 (HMC1.2 cells)
– | 1.76 µM | 2.3- to 5.6 fold | Cc1ccc(NC(=O)c2ccc(N3CCOCC3)c(C(F)(F)F)c2)cc1-c1cnc2sc(N)nc2c1 [6l] | 0.08 ± 0.01 µM | – | 4.34 ± 1.31 µM
– | 2.17 µM | 2.3- to 5.6 fold | Cc1ccc(NC(=O)c2ccc(N3CCN(C)CC3)c(C(F)(F)F)c2)cc1-c1cnc2sc(N)nc2c1 [6m] | 0.27 ± 0.17 µM | – | 3.41 ± 1.49 µM
Inactive ^b | – | – | Cc1ccc(NC(=O)c2cc(N3CCOCC3)cc(C(F)(F)F)c2)cc1-c1cnc2sc(N)nc2c1 [6n] | 0.55 ± 0.09 µM | – | 7 ± 2.68 µM
– | 5.03 µM | – | Cc1ccc(NC(=O)c2cc(N3CCN(C)CC3)cc(C(F)(F)F)c2)cc1-c1cnc2sc(N)nc2c1 [6o] | 0.28 ± 0.08 µM | – | 2.36 ± 0.58 µM
– | 5.72 µM | – | Cc1ccc(NC(=O)c2ccc(CN3CCOCC3)c(C(F)(F)F)c2)cc1-c1cnc2sc(N)nc2c1 [6p] | 0.66 ± 0.1 µM | – | 8.55 ± 2.4 µM
– | 3.23 µM | – | Cc1ccc(NC(=O)c2ccc(CN3CCS(=O)(=O)CC3)c(C(F)(F)F)c2)cc1-c1cnc2sc(N)nc2c1 [6q] | 0.42 ± 0.07 µM | – | 15.5 ± 3.97 µM
– | 1.25 µM | – | Cc1ccc(NC(=O)c2ccc(CN3CCN(CCO)CC3)c(C(F)(F)F)c2)cc1-c1cnc2sc(N)nc2c1 [6t] | 0.12 ± 0.03 µM | – | 6.62 ± 0.75 µM
– | 4.56 µM | – | CC(=O)N1CCN(Cc2ccc(C(=O)Nc3ccc(C)c(-c4cnc5sc(N)nc5c4)c3)cc2C(F)(F)F)CC1 [6u] | 0.66 ± 0.08 µM | – | 11.3 ± 0.34 µM
– | 0.39 µM | – | Cc1ccc(NC(=O)c2ccc(CN3CCCC(N(C)C)C3)c(C(F)(F)F)c2)cc1-c1cnc2sc(N)nc2c1 (stereo not drawn) [6v] | 0.05 ± 0.01 µM | – | 6.81 ± 0.67 µM
– | 0.25 µM | – | Cc1ccc(NC(=O)c2ccc(CN(C)CCN(C)C)c(C(F)(F)F)c2)cc1-c1cnc2sc(N)nc2c1 [6w] | 0.02 ± 0.01 µM | – | 4.99 ± 0.43 µM
